In US9695133B2, “Quinazolinone-based oncogenic-RAS-selective lethal compounds and their use” (THE TRUSTEES OF COLUMBIA UNIVERSITY IN THE CITY OF NEW YORK, priority 2012, dated 2017):

System: HT-1080 cells
Assay: Metabolite profiling (LC-MS/MS) upon erastin treatment
Type: cell-based, human
Settings: 5 μg/mL erastin 5 h
Method: 2 million HT-1080 cells were seeded in 10 cm culture dishes. […] 4 mL of cold 80% methanol was added to the cell monolayer to extract polar metabolites using a cell scraper. The cell lysate/methanol mixture was transferred to a 15 mL tube and centrifuged at 2,000×g at 4° C. for 10 minutes to pellet debris and proteins. The supernatant was transferred to a new tube and stored at −80° C. for liquid chromatography-mass spectrometry/mass spectrometry (LC-MS/MS) analysis. For lipid extract preparation, 3 mL of cold 100% isopropanol was added to the cell monolayer to scrape out cells. The resulting cell lysate/isopropanol mixture was transferred to a new 15 mL tube and centrifuged at 2,000×g at 4° C. for 10 minutes. The cleared supernatant was transferred to a new tube and stored at −20° C. for LC-MS/MS analysis.
The metabolite extract was subjected to LC-MS/MS analysis to determine the quantity of each metabolite in each sample.

Q: What does the source list for `CCOc1ccccc1-n1c(C(C)N2CCN(C(=O)COc3ccc(Cl)cc3)CC2)nc2ccccc2c1=O` (stereo not drawn) [erastin]?
A: C36:1 DAG Erastin/DMSO: 0.9334; C36:1 DAG log2 (Erastin/DMSO): −0.09938; C36:1 PC Erastin/DMSO: 0.6286; C36:1 PC log2 (Erastin/DMSO): −0.6697; C36:1 PE Erastin/DMSO: 0.9953; C36:1 PE log2 (Erastin/DMSO): −0.006813; C36:2 DAG Erastin/DMSO: 0.9163; C36:2 DAG log2 (Erastin/DMSO): −0.1261; C36:2 PC Erastin/DMSO: 0.8729; C36:2 PC log2 (Erastin/DMSO): −0.1962; C36:2 PE Erastin/DMSO: 0.9352; C36:2 PE log2 (Erastin/DMSO): −0.09672; C36:2 PI Erastin/DMSO: 1.021; C36:2 PI log2 (Erastin/DMSO): 0.02948; C36:3 DAG Erastin/DMSO: 1.092; C36:3 DAG log2 (Erastin/DMSO): 0.1266; C36:3 PC Erastin/DMSO: 0.9251; C36:3 PC log2 (Erastin/DMSO): −0.1124; C36:4 PC Erastin/DMSO: 0.9027; C36:4 PC log2 (Erastin/DMSO): −0.1477; C36:4 PI Erastin/DMSO: 1.395; C36:4 PI log2 (Erastin/DMSO): 0.4801; C38:2 PC Erastin/DMSO: 0.8405; C38:2 PC log2 (Erastin/DMSO): −0.2507; C38:3 PC Erastin/DMSO: 0.6597; C38:3 PC log2 (Erastin/DMSO): −0.6001; C38:4 PC Erastin/DMSO: 0.6814; C38:4 PC log2 (Erastin/DMSO): −0.5533; C38:4 PI Erastin/DMSO: 0.9823; C38:4 PI log2 (Erastin/DMSO): −0.02583; C38:5 PC Erastin/DMSO: 0.8836; C38:5 PC log2 (Erastin/DMSO): −0.1786; C38:6 PC Erastin/DMSO: 0.9708; C38:6 PC log2 (Erastin/DMSO): −0.0428; C44:0 TAG Erastin/DMSO: 0.9683; C44:0 TAG log2 (Erastin/DMSO): −0.04648; C44:1 TAG Erastin/DMSO: 1.639; C44:1 TAG log2 (Erastin/DMSO): 0.7127; C46:0 TAG Erastin/DMSO: 0.9424; C46:0 TAG log2 (Erastin/DMSO): −0.08557; C46:1 TAG Erastin/DMSO: 1.171; C46:1 TAG log2 (Erastin/DMSO): 0.2276; C46:2 TAG Erastin/DMSO: 1.542; C46:2 TAG log2 (Erastin/DMSO): 0.6247; C48:0 TAG Erastin/DMSO: 1.098; C48:0 TAG log2 (Erastin/DMSO): 0.1354; C48:1 TAG Erastin/DMSO: 1.059; C48:1 TAG log2 (Erastin/DMSO): 0.08209; C48:2 TAG Erastin/DMSO: 1.121; C48:2 TAG log2 (Erastin/DMSO): 0.1647; C48:3 TAG Erastin/DMSO: 1.52; C48:3 TAG log2 (Erastin/DMSO): 0.6042; C50:0 TAG Erastin/DMSO: 0.9625; C50:0 TAG log2 (Erastin/DMSO): −0.05513; C50:1 TAG Erastin/DMSO: 1.011; C50:1 TAG log2 (Erastin/DMSO): 0.01634; C50:2 TAG Erastin/DMSO: 1.073; C50:2 TAG log2 (Erastin/DMSO): 0.1023; C50:3 TAG Erastin/DMSO: 1.241; C50:3 TAG log2 (Erastin/DMSO): 0.3115; C50:4 TAG Erastin/DMSO: 1.682; C50:4 TAG log2 (Erastin/DMSO): 0.7502; C50:5 TAG Erastin/DMSO: 1.277; C50:5 TAG log2 (Erastin/DMSO): 0.3528; C52:0 TAG Erastin/DMSO: 1.041; C52:0 TAG log2 (Erastin/DMSO): 0.05755; C52:1 TAG Erastin/DMSO: 0.897; C52:1 TAG log2 (Erastin/DMSO): −0.1568; C52:2 TAG Erastin/DMSO: 0.9964; C52:2 TAG log2 (Erastin/DMSO): −0.005196; C52:3 TAG Erastin/DMSO: 1.124; C52:3 TAG log2 (Erastin/DMSO): 0.168; C52:4 TAG Erastin/DMSO: 1.305; C52:4 TAG log2 (Erastin/DMSO): 0.3844; C52:5 TAG Erastin/DMSO: 1.279; C52:5 TAG log2 (Erastin/DMSO): 0.355; C52:6 TAG Erastin/DMSO: 1.602; C52:6 TAG log2 (Erastin/DMSO): 0.6796; C54:1 TAG Erastin/DMSO: 0.8628; C54:1 TAG log2 (Erastin/DMSO): −0.2129; C54:2 TAG Erastin/DMSO: 0.8696; C54:2 TAG log2 (Erastin/DMSO): −0.2016; C54:3 TAG Erastin/DMSO: 0.9692; C54:3 TAG log2 (Erastin/DMSO): −0.04517; C54:4 TAG Erastin/DMSO: 1.178; C54:4 TAG log2 (Erastin/DMSO): 0.2363; C54:5 TAG Erastin/DMSO: 1.315; C54:5 TAG log2 (Erastin/DMSO): 0.3952; C54:6 TAG Erastin/DMSO: 1.267; C54:6 TAG log2 (Erastin/DMSO): 0.3411; C54:7 TAG Erastin/DMSO: 1.062; C54:7 TAG log2 (Erastin/DMSO): 0.08689; C54:8 TAG Erastin/DMSO: 0.9067; C54:8 TAG log2 (Erastin/DMSO): −0.1413; C54:9 TAG Erastin/DMSO: 1.331; C54:9 TAG log2 (Erastin/DMSO): 0.4129; C54:10 TAG Erastin/DMSO: 0.8851; C54:10 TAG log2 (Erastin/DMSO): −0.1761; C56:2 TAG Erastin/DMSO: 0.9703; C56:2 TAG log2 (Erastin/DMSO): −0.04354; C56:3 TAG Erastin/DMSO: 0.8103; C56:3 TAG log2 (Erastin/DMSO): −0.3035; C56:4 TAG Erastin/DMSO: 0.9505; C56:4 TAG log2 (Erastin/DMSO): −0.07326; C56:5 TAG Erastin/DMSO: 1.134; C56:5 TAG log2 (Erastin/DMSO): 0.1814; C56:6 TAG Erastin/DMSO: 1.047; C56:6 TAG log2 (Erastin/DMSO): 0.06693; C56:7 TAG Erastin/DMSO: 1.062; C56:7 TAG log2 (Erastin/DMSO): 0.08653; C56:8 TAG Erastin/DMSO: 1.178; C56:8 TAG log2 (Erastin/DMSO): 0.2368; C56:9 TAG Erastin/DMSO: 0.9865; C56:9 TAG log2 (Erastin/DMSO): −0.01961; C56:10 TAG Erastin/DMSO: 0.9129; C56:10 TAG log2 (Erastin/DMSO): −0.1315; C58:6 TAG Erastin/DMSO: 1.047; C58:6 TAG log2 (Erastin/DMSO): 0.06641; C58:7 TAG Erastin/DMSO: 1.071; C58:7 TAG log2 (Erastin/DMSO): 0.09945; C58:8 TAG Erastin/DMSO: 1.118; C58:8 TAG log2 (Erastin/DMSO): 0.1603; C58:9 TAG Erastin/DMSO: 1.176; C58:9 TAG log2 (Erastin/DMSO): 0.2336; CMP Erastin/DMSO: 0.9376; CMP log2 (Erastin/DMSO): −0.09295; DHAP Erastin/DMSO: 1.227; DHAP log2 (Erastin/DMSO): 0.2955; F1P Erastin/DMSO: 0.9652; F1P log2 (Erastin/DMSO): −0.05103; F16DP/F26DP/G16DP Erastin/DMSO: 1.303; F16DP/F26DP/G16DP log2 (Erastin/DMSO): 0.3816
